Some results are limits rather than exact numbers.

By inhibition is commonly meant how much of the control response was suppressed.

The target in one test is neurokinin-1 receptor (Homo sapiens, UniProt P25103). In words: Tachykinin antagonism assay: inhibition of Substance P-induced calcium mobilization (FLIPR) in U373 MG cells. Type of test: cell-based. The following applies: Substance P 1 nM. Here is the method: An assay measuring the ability of compounds 1–50 to antagonize binding of substance P peptide to its receptor neurokinin-1 was performed. Substance P is known to act upon cells via the mobilization of calcium (Bordey et al., Glia 11: 277–283, 1994). The compounds were assessed for their ability to inhibit the action of Substance P with the use of a Fluorescent Imaging Plate Reader (FLIPR) from Molecular Devices (Shroeder et al., J. Biomol. Screening 1: 75–80, 1996; U.S. Pat. No. 5,112,134; U.S. Pat. No. 4,968,148). […] This dye is similar to Fluo-3, Fluo-4, and Calcium Green dyes used by other researchers (Lin et al., Biotechniques 26: 318–326, 1999) in that it increases in fluorescence in the presence of calcium; the Molecular Devices version is preferable because the cells need not be washed following staining with the dye. […] Substance P was added in Hank's salt solution with 1% BSA to give a final concentration of 1 nM and the resultant change in fluorescence intensity was monitored for thirty seconds with an excitation wavelength of 480 nm and an emission of 515 nm. Some wells were maintained as controls which were not incubated with any compound, and the peak fluorescence readings resulting from the wells which received compounds were compared to these control wells in order to determine the degree of inhibition.
Chain of neurokinin-1 receptor (P25103 whole entry): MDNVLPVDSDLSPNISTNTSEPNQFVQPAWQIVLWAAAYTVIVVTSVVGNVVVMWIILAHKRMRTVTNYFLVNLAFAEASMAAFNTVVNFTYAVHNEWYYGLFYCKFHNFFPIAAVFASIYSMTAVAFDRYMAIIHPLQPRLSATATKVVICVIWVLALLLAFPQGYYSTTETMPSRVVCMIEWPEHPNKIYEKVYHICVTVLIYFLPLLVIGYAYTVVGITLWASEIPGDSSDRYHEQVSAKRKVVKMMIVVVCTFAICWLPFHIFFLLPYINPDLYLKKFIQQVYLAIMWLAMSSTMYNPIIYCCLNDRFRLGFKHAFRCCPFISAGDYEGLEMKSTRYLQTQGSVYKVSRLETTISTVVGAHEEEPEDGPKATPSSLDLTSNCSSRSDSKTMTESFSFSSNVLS
(In general: A change in cytosolic calcium serves as a functional read-out for many receptors and channels.)

The next test addresses T1, α4β1 integrin (Homo sapiens, UniProt P05556+P13612).
T1 construct: Harvested Ramos cells; endogenous in cells; host or cells: Ramos cells
In words: Antagonism of binding of CS1 peptide to α4β1 integrin (calcein-labelled Ramos cell adhesion to biotinylated CS1 plate). Conditions: Ramos cells. Type of test: cell-based. Here is the method:
In brief, 100 μL/well of a solution of biotinylated CS1 peptide (1 mg/100 mL of phosphate buffered saline (PBS)) was incubated in a NeutrAvidin plate (Pierce) for 1 h at room temperature. The plate was then washed 3× with distilled water and treated with 200 μL of blocking buffer (3% BSA in PBS) for at least 4 h. Blocked plates were washed as above. Harvested Ramos cells (10^7/mL) were resuspended in PBS containing 10 μL of calcein AM/mL and incubated 30 min in the dark. This suspension was diluted with 45 mL PBS and the cells harvested by centrifugation and aspiration. The cells were resuspended in binding buffer (˜5×10^5/mL). If cell lysis was to be monitored ethidium homodimer was added to the buffer to a final concentration of 5 μM. A solution (10 μL) of compound to be tested or control peptide was added to appropriate wells followed by 90 μL of the cell suspension. The plate was incubated at 37° C. for 1 h. […] Otherwise, the plate was washed 3×, 50 μL of lysis buffer was added to each well, the plate rocked in the dark for 10 min, and the fluorescence monitored at 485 nm excitation and 535 nm emission.

T1 sequence (P13612 34-1032): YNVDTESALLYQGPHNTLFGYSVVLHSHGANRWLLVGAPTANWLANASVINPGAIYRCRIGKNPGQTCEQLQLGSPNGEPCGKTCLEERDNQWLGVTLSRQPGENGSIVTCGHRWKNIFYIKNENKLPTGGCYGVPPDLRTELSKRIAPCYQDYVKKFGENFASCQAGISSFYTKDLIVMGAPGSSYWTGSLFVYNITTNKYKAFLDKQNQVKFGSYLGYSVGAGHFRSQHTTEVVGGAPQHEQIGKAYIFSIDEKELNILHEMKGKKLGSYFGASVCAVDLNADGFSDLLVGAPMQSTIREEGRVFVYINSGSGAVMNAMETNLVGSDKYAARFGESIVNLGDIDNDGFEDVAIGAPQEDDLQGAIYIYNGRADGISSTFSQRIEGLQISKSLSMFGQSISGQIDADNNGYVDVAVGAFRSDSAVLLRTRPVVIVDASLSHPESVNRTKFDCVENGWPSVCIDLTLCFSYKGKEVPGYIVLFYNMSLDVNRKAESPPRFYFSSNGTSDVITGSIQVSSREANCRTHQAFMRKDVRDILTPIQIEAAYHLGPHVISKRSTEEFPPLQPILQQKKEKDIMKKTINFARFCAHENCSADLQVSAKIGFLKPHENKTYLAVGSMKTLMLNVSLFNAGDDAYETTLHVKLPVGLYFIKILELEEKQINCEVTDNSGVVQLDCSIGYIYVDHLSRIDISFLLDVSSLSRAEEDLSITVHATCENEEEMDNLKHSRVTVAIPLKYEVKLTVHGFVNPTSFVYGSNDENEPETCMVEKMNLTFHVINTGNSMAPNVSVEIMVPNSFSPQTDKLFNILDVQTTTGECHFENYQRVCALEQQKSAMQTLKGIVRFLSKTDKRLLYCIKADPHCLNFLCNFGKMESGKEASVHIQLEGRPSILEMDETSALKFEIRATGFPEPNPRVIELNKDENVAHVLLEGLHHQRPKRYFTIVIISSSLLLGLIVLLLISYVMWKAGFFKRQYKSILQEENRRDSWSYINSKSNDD
T1 sequence (P05556 21-798): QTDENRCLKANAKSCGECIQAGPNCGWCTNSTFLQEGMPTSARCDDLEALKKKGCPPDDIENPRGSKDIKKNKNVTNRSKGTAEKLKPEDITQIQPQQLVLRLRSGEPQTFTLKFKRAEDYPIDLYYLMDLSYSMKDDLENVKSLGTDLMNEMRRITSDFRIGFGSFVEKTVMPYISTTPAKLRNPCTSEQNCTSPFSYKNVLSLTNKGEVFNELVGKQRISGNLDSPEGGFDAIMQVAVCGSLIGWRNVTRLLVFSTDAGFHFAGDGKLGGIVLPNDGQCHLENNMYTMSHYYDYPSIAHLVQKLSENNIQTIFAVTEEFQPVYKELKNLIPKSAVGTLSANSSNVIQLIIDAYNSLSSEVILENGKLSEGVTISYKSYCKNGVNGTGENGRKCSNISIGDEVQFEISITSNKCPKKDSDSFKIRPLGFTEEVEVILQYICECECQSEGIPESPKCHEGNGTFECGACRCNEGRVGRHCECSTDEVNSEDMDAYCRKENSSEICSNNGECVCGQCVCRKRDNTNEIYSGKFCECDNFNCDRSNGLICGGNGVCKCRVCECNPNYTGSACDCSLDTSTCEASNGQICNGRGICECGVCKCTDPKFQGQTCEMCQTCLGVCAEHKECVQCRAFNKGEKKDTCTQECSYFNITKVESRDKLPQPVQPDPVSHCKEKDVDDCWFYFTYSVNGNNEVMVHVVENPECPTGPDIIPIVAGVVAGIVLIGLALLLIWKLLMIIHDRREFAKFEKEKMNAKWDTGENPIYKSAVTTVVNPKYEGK

In the case of `CC12OC(=O)[C@H](Cc3ccccc3)N1C(=O)[C@H]1CCCN1C2=O` (stereo partly drawn) [Compound 45], at neurokinin-1 receptor, the inhibition at 20 µM was > 25%. In addition, the inhibition at 100 µM at α4β1 integrin was > 50%. On to `O=C1C[C@H](Cc2ccccc2)N2C(=O)[C@H](Cc3ccc(O)cc3)N(CC3CCCCC3)C(=O)C2O1` (stereo partly drawn) [Compound 47], for which the inhibition at 100 µM on α4β1 integrin is > 50%.

These data come from patent publication US7008941B2, “Reverse-turn mimetics and methods relating thereto” (Myriad Genetics, Inc., priority 2001, dated 2006).
